Melting point and Ki data for four compounds are collected here from US6432974B1, “Pyrrolo-isoquinoline and tetra-hydropyrrolo-isoquinoline derivatives and their use as mediators of the 5-HT7 receptor” (Wyeth, priority 2000, dated 2002).

In one data set the target is T1, human 5HT7 receptor (Homo sapiens, UniProt P34969).
T1 construct: purchased BioSignal Drug Discovery Technology, Montreal, Canada; host or cells: CHO cells (stably transfected), membranes
As to the kind of experiment: 5-HT7 Receptor Binding Assay ([3H]LSD displacement, CHO cell membranes).

SMILES strings stand for the structures. pKi: −log10 of the molar value. Where a name gives a salt, the structure may show the parent alone. Read-outs that look alike come from different tables or passages of the source.

One may read the melting point as the temperature, or range, at which the solid turns liquid. As usually defined, the pKi is the negative decadic logarithm of the Ki, by convention in mol/L.

T1 sequence (P34969 whole entry): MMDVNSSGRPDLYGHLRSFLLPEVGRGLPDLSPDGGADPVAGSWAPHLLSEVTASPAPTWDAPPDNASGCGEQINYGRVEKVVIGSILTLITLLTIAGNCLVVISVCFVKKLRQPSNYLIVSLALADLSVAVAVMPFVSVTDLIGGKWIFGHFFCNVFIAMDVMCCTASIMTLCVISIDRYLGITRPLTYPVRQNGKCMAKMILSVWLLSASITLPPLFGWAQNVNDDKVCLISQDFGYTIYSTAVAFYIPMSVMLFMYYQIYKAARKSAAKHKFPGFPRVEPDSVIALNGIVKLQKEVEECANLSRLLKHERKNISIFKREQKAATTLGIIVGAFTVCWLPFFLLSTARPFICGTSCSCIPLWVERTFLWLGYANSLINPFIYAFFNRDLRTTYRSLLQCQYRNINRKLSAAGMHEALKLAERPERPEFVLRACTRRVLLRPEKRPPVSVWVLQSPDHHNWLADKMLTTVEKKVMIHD

`NCCc1c[nH]c2cc3c(cc12)C(=O)N(Cc1ccccc1)CC3` (as salt: HCl) (hydrate or solvate) showed a melting point of 262 to 263 °C. As to `NCCc1c[nH]c2cc3c(cc12)C(=O)NCC3` (as salt: salt) (hydrate or solvate) [Compound 1, 3-(2-Amino-ethyl)-1,6,7,8-tetrahydro-pyrrolo[2,3-g]isoquinolin-5-one], the melting point was in the range of 82 to 86 °C. In the case of `NCCc1c[nH]c2cc3c(cc12)C(=O)NCC3` [Compound 1, 3-(2-Amino-ethyl)-1,6,7,8-tetrahydro-pyrrolo[2,3-g]isoquinolin-5-one], the pKi on human 5HT7 receptor is 7.85. With `CN1CCN(C2=Nc3ccccc3Oc3ccc(Cl)cc32)CC1` [Loxapine, reference compound], the pKi at human 5HT7 receptor (displacement of [3H]LSD, cloned human 5-HT7 receptor membranes from CHO cells, value with 95% confidence interval, read-out: 5-HT7 binding Ki) was 7.37.
